According to PMC6286365 (Scientific Reports, 2018):

Tests used:
acid sphingomyelinase = target: T1, acid sphingomyelinase (Homo sapiens, UniProt P17405); experiment: Acid sphingomyelinase inhibition (results not shown); type: biochemical
T1 sequence (P17405 47-631): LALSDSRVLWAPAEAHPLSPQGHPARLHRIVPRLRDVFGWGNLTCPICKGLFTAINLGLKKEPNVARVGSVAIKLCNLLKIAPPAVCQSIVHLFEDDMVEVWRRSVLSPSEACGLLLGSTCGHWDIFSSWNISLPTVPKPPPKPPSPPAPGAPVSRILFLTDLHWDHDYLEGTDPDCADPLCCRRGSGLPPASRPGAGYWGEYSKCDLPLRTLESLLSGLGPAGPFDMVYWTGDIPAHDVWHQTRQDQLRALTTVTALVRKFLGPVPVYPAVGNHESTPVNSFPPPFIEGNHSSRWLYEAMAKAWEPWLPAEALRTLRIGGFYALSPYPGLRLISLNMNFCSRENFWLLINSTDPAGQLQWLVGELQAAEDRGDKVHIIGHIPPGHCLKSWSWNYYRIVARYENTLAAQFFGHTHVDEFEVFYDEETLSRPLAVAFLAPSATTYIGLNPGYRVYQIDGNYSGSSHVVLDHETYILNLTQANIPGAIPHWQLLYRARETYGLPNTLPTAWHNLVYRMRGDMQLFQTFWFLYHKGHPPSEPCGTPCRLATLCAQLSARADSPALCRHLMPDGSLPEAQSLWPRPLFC

[1] = Metabolic stability in mouse liver microsomes with NADPH; type: in vitro ADME; details: pH 7.4, 1 μM compound, read-out: percent remaining
Method: One potential liability when using chemical probes in vivo is lack of metabolic stability which structurally inactivates the compound before it can reach its molecular target. […] Percent of drug remaining over time was determined by liquid chromatography–tandem mass spectrometry analysis (LC/MS/MS).
Metabolic stability assay was conducted in mouse or human liver microsomes as we have described previously with minor modifications. Briefly, the reaction was carried out using potassium phosphate buffer (100 mM, pH 7.4), in the presence of an NADPH regenerating system (compound final concentration was 1 μM; 0.2 mg/mL microsomes). Compound disappearance was monitored over time using a liquid chromatography and tandem mass spectrometry (LC/MS/MS) method. Chromatographic analysis was performed using an Accela ultra high-performance system consisting of an analytical pump and an autosampler coupled with a TSQ Vantage mass spectrometer (Thermo Fisher Scientific Inc., Waltham, MA). […] The mobile phase consisted of 0.1% formic acid in acetonitrile and 0.1% formic acid in water with gradient elution.

Rat primary astrocytes = experiment: Astrocyte activation, GFAP immunofluorescence (+/-) serum deprivation; type: cell-based; details: 10 μM, 2 h
Method: Independent laboratories have shown that pharmacological and genetic inhibition of nSMase2 blocks EV secretion from glial cells. […] Two hours after treatment, EVs were isolated from the media and quantified by nanoparticle tracking analysis. […] Cells were fixed and immunofluorescence labeling for GFAP was performed.
Media was collected after 2 h incubation and centrifuged at 2700 × g for 15 min at 4 °C. Supernatant was collected and the number of extracellular vesicles (EVs) was quantified using ZetaView Nanoparticle Tracker. The mean concentration of EVs/mL (±SEM) was calculated from 4 replicate experiments. […] Astrocytes grown in complete medium were used as no treatment control. Cells were fixed and stained with anti-GFAP antibody (1:500, Sigma). Fluorescence intensity was measured using Image J. (C) Quantitation of fluorescence in (B). Bar graph represents background corrected mean fluorescence intensity measured from 100 astrocytes per condition. Error bars represent standard error of mean. One-way ANOVA followed by Tukey’s posthoc test was performed.

human nSMase2 = target: T2, human nSMase2 (Homo sapiens, UniProt Q9NY59); experiment: Mode of inhibition: rate vs SM concentration at several DPTIP concentrations (Michaelis-Menten fits); type: biochemical; parameters: Full length human nSMase2 cDNA with a C-terminal Flag tag; host or cells: HEK293 cells, G418-selected; crude sonicated cell lysate used as the enzyme preparation; details: with respect to SM
T2 sequence (Q9NY59 1-655): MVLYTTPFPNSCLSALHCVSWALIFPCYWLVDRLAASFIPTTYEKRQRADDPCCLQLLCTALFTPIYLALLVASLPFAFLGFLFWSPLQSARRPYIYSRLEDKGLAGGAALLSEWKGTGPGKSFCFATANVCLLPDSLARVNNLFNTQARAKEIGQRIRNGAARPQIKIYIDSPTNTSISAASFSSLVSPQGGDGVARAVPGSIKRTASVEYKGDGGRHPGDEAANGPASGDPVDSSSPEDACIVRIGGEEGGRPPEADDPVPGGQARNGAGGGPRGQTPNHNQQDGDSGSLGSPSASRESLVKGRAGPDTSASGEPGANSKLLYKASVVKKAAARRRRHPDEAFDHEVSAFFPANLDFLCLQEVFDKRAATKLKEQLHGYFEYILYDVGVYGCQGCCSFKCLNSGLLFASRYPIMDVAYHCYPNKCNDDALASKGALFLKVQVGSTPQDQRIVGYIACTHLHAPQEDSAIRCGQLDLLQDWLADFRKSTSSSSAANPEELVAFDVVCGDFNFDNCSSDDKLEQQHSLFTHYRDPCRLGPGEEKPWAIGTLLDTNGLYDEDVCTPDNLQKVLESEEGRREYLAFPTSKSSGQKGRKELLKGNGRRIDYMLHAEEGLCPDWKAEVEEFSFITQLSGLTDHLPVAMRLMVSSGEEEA

COc1cc(-c2nc(-c3cccs3)c(-c3ccccc3)[nH]2)cc(OC)c1O [DPTIP, 2,6-Dimethoxy-4-(5-Phenyl-4-Thiophen-2-yl-1H-Imidazol-2-yl)-Phenol]
IC50 (acid sphingomyelinase): > 100 µM | remaining at 1 h, 1 μM [1]: 100% | effect on GFAP levels without serum starvation (Rat primary astrocytes; no serum starvation): did not change GFAP levels | effect on astrocyte activation (GFAP) in response to serum starvation (Rat primary astrocytes; with serum deprivation): prevented astrocyte activation | mode of inhibition (human nSMase2): noncompetitive
